In patent US8058309B2, “Protein kinase modulators and therapeutic uses thereof” (Novotyr Therapeutics Ltd., priority 2006, dated 2011):
Read-outs that look alike come from different tables or passages of the source.

Tests used:
K562 = experiment: Proliferation assay K562; assay type: cell-based; details: Homo sapiens, Leukemia, 72 hours
Description: (§1) Various cancer cell lines (listed in table 1) were plated at a density of 1000-5000 cells/well in 96-well plates in 90111 growth medium containing 10% FCS, 100 units/ml penicillin and 100 μg/ml streptomycin. Inhibitors were added a day later in 10 μl of 1% DMSO in DDW to obtain final concentrations of 0, 0.1, 0.3, 1, 3, and 10 μM. The final concentration of DMSO (0.1% DMSO) was kept constant in all samples. Medium with inhibitors was refreshed a day and two days later. Following exposure of the cells to the inhibitors for 72 hours at 37° C., the cells were fixed in 0.5% gluteraldehyde in medium for 10 min, washed three times with DDW, once with 0.1M sodium borate buffer pH 8.5 and stained with 1% methylene blue dissolved in 0.1M borate buffer solution for 60 min. Excess dye was washed out and cell-bound dye was eluted with 200 μl/well of 0.1 M HCl. The optical density value was read at 620 nm in ELISA plate reader. The data was analyzed in Microsoft Excel, using the vehicle control as 100% proliferation. The assays were performed in triplicates. The values in table 1 represent IC50 values derived from the dose-dependent growth curves obtained.
(§2) Compounds 6, 7, 8, and 9 were tested for their inhibitory potential in cell proliferation assay. In this assay cells were exposed to increasing concentrations of the molecules (at 0.1% DMSO in all wells) a day after seeding. Medium and inhibitors were refreshed every day, and following three days of treatment, cells were fixed and stained with methylene-Blue. IC50 values were determined from the curves of the optical density against compound concentration. The assay was performed in triplicates.

MDA MB 468 = experiment: Proliferation assay MDA MB 468; assay type: cell-based; details: Homo sapiens, Breast, 72 hours
Description: as §1, §2

PC3 = experiment: Clonogenic assay PC3; assay type: cell-based; details: Homo sapiens, PC-3, Prostate
Description: (§3) Various cancer cells (listed in table 1) were seeded at a very low concentration (19 cells/well in 96-well plates or 63 cells/well in 24-well plates) in growth medium. A day later medium was replaced with growth medium containing various concentrations of inhibitors in a final concentration of 0.1% DMSO. The inhibitor-containing medium was refreshed three times a week. Following approximately two weeks cells were fixed by adding Gluteraldehide (0.5% final concentration) for 10 min, washed three time with DDW, once with borate buffer 0.1M and stained for 1 hour with 1% Methylene Blue in borate buffer 0.1M. Access stain was washed with water, and following drying colonies were counted. Alternatively, stain was extracted by 0.1N HCl for 1 hour and absorbance at 620 nm was measured by ELISA Reader. The assays were performed in triplicates. The values in table 1 represent IC50 values derived from the dose-dependent growth curves obtained.

NCl-H526 = experiment: Proliferation assay NCl-H526; assay type: cell-based; details: Lung, 72 hours
Description: as §1, §2

PC3-MM2 = experiment: Proliferation assay PC3-MM2; assay type: cell-based; details: Homo sapiens, PC3MM2, Prostate, 72 hours
Description: as §1, §2

U87MG = experiment: Proliferation assay U87MG; assay type: cell-based; details: Homo sapiens, U-87 MG, Glioma, 72 hours
Description: as §1, §2

YURIF = experiment: Proliferation assay YURIF; assay type: cell-based; details: Homo sapiens
Description: as §1, §2

Colo-205 = experiment: Proliferation assay Colo-205; assay type: cell-based; details: Homo sapiens, Colon, 72 hours
Description: as §1, §2

U266 = experiment: Proliferation assay U266; assay type: cell-based; details: Homo sapiens, U-266, Myeloma, 72 hours
Description: as §1, §2

LIM 1899 = experiment: Proliferation assay LIM 1899; assay type: cell-based; details: Colon, 72 hours
Description: as §1, §2

SKBR-3 = experiment: Proliferation assay SKBR-3; assay type: cell-based; details: Homo sapiens, SK-BR-3, Breast, 72 hours
Description: as §1, §2

HT29 = experiment: Clonogenic assay HT29; assay type: cell-based; details: Homo sapiens, HT-29, Colon
Description: as §3

[1] = tested on: metastatic melanoma YUMAC cells; experiment: Apoptosis (cleaved PARP) in YUMAC cells; assay type: cell-based, human; details: 24 hours of exposure, 3 μM
Description: (§4) In addition, lysates were prepared from cells exposed to inhibitors at various concentrations for 24 hours in the presence or the absence of FCS without stimulation. Lysate preparation and western blot were the same as described above. Apoptosis was detected by immunoblotting with rabbit anti-PARP antibodies.

U138MG = experiment: Proliferation assay U138MG; assay type: cell-based; details: Homo sapiens, U138-MG, Glioma, 72 hours
Description: as §1, §2

[2] = tested on: ovarian cancer A2780 cells; experiment: Apoptosis (cleaved PARP) in A2780 cells; assay type: cell-based, human; details: 21 hours of exposure
Source text: […] Lysate preparation and western blot were the same as described above. Apoptosis was detected by immunoblotting with rabbit anti-PARP antibodies.

IGF1R = target: T1, IGF1R (Homo sapiens, UniProt P08069); experiment: IGF1R cellular free kinase assay (pGT substrate phosphorylation); assay type: biochemical; details: for Competition with ATP (kinetic studies): elevation of ATP concentration
T1 construct: made in house
Description: The general protein-tyrosine kinase substrate, poly(Glu,Tyr) 4:1 (pGT), was coated onto a 96-well Maxisorp plates (Nunc) by adding 125 μl of 0.1 mg/ml pGT in PBS to each well. Plates were sealed and incubated for 16 hours at 37° C., washed once with TBST (10 mM Tris-HCl, pH 7.5, 50 mM NaCl, and 0.1% Triton X-100) and once with DDW, dried for 2-3 hours, and stored at 4° C. […] The plate was then washed with TBS with 0.2% Tween 20 (TBST) and blocked with 0.5% BSA in TBST. Mouse monoclonal anti-phosphotyrosine antibody, conjugated to Horse radish peroxidase (PT-66, 1:50000) was added to the plate. Following incubation for 45 min at room temperature, the plate was washed repeatedly with TBST. Detection was carried out with a color reagent, 2,2′-azido-bis-3-ethylbenzithiazoline-6-sulfonic acid, in citrate-phosphate buffer, pH 4.0, with 0.004% H2O2 for 10 min and monitored at 405 nm, all at room temperature. IC50 values of inhibitors were calculated using the REGRESSION program. The assay was optimized with respect to the amount of IGF-1R (partially purified from cells overexpressing IGF1R), reaction time, and ATP concentration. The signal was linear for 30 min in the range of IGF1R protein concentrations up to 35 ng/well.

IRS1 = IRS1 Ser-phosphorylation and IRS1 levels in A2780 cells; assay type: cell-based, human; details: ovarian cancer A2780 cells
Description: as §4

[3] = Melanoma, YURIF, 72 hours, read-out: Proliferation assay IC50
[4] = Table 4, 72 hours incubation, read-out: Inhibition of human metastatic melanoma cells, YURIF IC50
[5] = [ATP] 2.5 μM, read-out: IC50, competition with ATP in cellular free kinase assay of IGF1R
[6] = [ATP] 5 μM, read-out: IC50, competition with ATP in cellular free kinase assay of IGF1R
[7] = [ATP] 10 μM, read-out: IC50, competition with ATP in cellular free kinase assay of IGF1R
[8] = [ATP] 20 μM, read-out: IC50, competition with ATP in cellular free kinase assay of IGF1R
[9] = [ATP] 50 μM, read-out: IC50, competition with ATP in cellular free kinase assay of IGF1R
[10] = partially purified IGF1R, 20 μM ATP, read-out: IC50 values of IGF1R activity in cellular free kinase assay

T1 sequence (P08069 31-1367, species assumed): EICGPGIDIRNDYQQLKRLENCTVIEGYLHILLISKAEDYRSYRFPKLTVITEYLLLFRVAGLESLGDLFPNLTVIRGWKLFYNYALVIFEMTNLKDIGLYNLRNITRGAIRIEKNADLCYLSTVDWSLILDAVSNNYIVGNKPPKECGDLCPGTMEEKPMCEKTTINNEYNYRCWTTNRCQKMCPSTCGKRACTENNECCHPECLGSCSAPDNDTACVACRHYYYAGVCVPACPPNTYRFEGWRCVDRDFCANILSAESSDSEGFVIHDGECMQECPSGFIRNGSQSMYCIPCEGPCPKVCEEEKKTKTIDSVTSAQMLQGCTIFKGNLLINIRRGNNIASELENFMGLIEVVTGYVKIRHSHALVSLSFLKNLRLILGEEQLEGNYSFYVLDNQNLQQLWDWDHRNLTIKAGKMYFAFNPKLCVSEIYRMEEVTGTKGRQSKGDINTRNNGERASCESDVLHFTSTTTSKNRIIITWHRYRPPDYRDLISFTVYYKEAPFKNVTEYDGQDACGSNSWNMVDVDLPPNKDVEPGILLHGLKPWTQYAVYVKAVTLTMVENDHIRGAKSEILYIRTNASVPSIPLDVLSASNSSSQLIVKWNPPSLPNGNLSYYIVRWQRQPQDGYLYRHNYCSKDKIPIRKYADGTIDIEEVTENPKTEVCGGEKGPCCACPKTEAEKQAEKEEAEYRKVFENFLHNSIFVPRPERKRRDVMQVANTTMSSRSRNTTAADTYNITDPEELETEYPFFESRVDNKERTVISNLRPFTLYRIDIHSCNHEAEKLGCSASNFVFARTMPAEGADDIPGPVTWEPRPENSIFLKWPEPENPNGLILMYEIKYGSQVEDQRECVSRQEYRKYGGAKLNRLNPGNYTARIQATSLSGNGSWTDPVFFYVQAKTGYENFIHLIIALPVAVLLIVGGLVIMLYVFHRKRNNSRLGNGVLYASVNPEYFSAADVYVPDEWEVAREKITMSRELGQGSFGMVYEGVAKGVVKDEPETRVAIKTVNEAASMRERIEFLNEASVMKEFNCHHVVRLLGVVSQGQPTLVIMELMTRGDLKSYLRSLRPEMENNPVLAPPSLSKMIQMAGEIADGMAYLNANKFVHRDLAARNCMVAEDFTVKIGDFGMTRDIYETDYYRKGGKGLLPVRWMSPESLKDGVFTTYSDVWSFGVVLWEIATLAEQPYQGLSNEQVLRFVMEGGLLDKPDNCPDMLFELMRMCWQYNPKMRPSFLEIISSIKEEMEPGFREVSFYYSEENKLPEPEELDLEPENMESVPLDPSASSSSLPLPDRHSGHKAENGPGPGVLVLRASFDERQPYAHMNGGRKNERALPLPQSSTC

IC50 (K562)	IC50 (PC3)	IC50 (NCl-H526)	IC50 (PC3-MM2)	IC50 (U87MG)	IC50 (Colo-205)	IC50 (U266)	IC50 (SKBR-3)	IC50 (HT29)	IC50 (IGF1R; [5])	IC50 (IGF1R; [6])	IC50 (IGF1R; [7])	IC50 (IGF1R; [10])	SMILES	IC50 (MDA MB 468)	IC50 (YURIF; [3])	IC50 (YURIF; [4])	IC50 (LIM 1899)	Cleavage of PARP (apoptosis) [1]	IC50 (U138MG)	Apoptosis (cleaved PARP detection) [2]	also measured
~10 µM	1 µM	> 10 µM	2.1 µM	2.4 µM	2.5 µM	0.8 µM	9 µM	5.6 µM	0.19 µM	0.11 µM	0.1 µM	0.076 µM	N#C/C(=C\c1cc(O)c(O)c(I)c1)C(=S)NCc1cc(O)c(O)c(O)c1 [Compound 8]	5.8 µM	1.6 µM	1.6 µM	7.1 µM	detected	0.8 µM	undergo apoptosis	IC50 (IGF1R; [8]): 0.08 µM; IC50 (IGF1R; [9]): 0.1 µM; Competition with ATP (kinetic studies) (IGF1R): do not compete with ATP; Cellular IRS1 levels (IRS1): a decrease in cellular IRS1 levels; IRS1 Ser-phosphorylation (shift up of IRS1 band) (IRS1): induced Ser-phosphorylation
~10 µM	4.2 µM	> 10 µM	2.6 µM	6.9 µM	5.4 µM	0.8 µM	9.9 µM	2.8 µM	0.19 µM	0.163 µM	0.124 µM	0.116 µM	N#C/C(=C\c1cc(O)c(O)c(Br)c1)C(=S)NCc1cc(O)c(O)c(O)c1 [Compound 7]	> 10 µM	1.4 µM	1.4 µM	7.6 µM	detected	0.8 µM	undergo apoptosis	IC50 (IGF1R; [8]): 0.09 µM; IC50 (IGF1R; [9]): 0.08 µM; Competition with ATP (kinetic studies) (IGF1R): do not compete with ATP; Cellular IRS1 levels (IRS1): a decrease in cellular IRS1 levels; IRS1 Ser-phosphorylation (shift up of IRS1 band) (IRS1): induced Ser-phosphorylation
> 10 µM	1.2 µM	> 10 µM	6.9 µM	6.6 µM	1.7 µM	0.9 µM	6 µM	1.6 µM	–	–	–	0.078 µM	Oc1cc(CNC(=S)/C=C/c2cc(O)c(O)c(Br)c2)cc(O)c1O [Compound 9]	7.2 µM	0.7 µM	0.65 µM	2 µM	detected	0.2 µM	undergo apoptosis	Cellular IRS1 levels (IRS1): a decrease in cellular IRS1 levels; IRS1 Ser-phosphorylation (shift up of IRS1 band) (IRS1): induced Ser-phosphorylation
> 10 µM	0.7 µM	> 10 µM	> 10 µM	> 10 µM	> 10 µM	9.8 µM	> 10 µM	9.5 µM	0.074 µM	0.056 µM	0.092 µM	0.098 µM	N#C/C(=C\c1cc(O)c(O)c(Br)c1)C(=S)NCc1cc(O)c(O)c(Br)c1 [Compound 6]	> 10 µM	> 10 µM	> 10 µM	> 10 µM	–	2 µM	undergo apoptosis	IC50 (IGF1R; [8]): 0.055 µM; IC50 (IGF1R; [9]): 0.098 µM; Competition with ATP (kinetic studies) (IGF1R): do not compete with ATP
